Like-named read-outs stand apart in the source and are kept apart here.
What was measured:
[1] = cited from earlier work; for stability of the form (in words): as reported in US 2006/0287528 or US 2007/0021430; for conversion into crystalline sitagliptin phosphate monohydrate: US 2007/0021430
[2] = Stability studies of Form V bulk material and tablets on storage, stability-indicating HPLC; type: physicochemical; settings: bulk material
Description: The stability of Form V of sitagliptin phosphate bulk material and tablets is assessed by storing samples for up to 12 weeks at 25° C./60% RH or up to 3 weeks at 40° C./75% RH. Changes are monitored using a stability-indicating HPLC method. Results were calculated by normalized peak area (npa). Degradants are identified by comparison of their relative retention times against impurity standards.

[3] = Thermal phase stability of Form V on heating; type: physicochemical; settings: heating up to 41° C.
Description: Additionally, Form V has lower water content, good material flow characteristic and better chemical stability.

[4] = Solubility of sitagliptin phosphate in water and polar organic solvents; type: physicochemical
Description: In a preferred aspect, Form V of sitagliptin phosphate may be prepared by slurring starting material, crude or pure sitagliptin phosphate, anhydrate or solvate, which can be obtained according to the procedures described in U.S. patent application 2005/0032804 with a polar organic solvent or a mixture of two or more polar organic solvents under heat. The sitagliptin phosphate is soluble in water, but not soluble in polar organic solvents. The preferred polar organic solvent is methanol or acetone. The concentration of sitagliptin phosphate within the solution may range from about 0.1% by weight to the saturation point. This concentration will, of course, vary depending upon the temperature at which the co-solvent solution is held, with warmer temperatures generally allowing for the preparation of more concentrated solutions of sitagliptin phosphate. Preferably, the concentration (w/w %) of sitagliptin phosphate starting material in solution is about 0.5-15%, preferably about 1-10%, more preferably about 1.5-5%. The volume ratio of water to methanol or acetone is about 1:0.1-200, preferably about 1:2-30, more preferably about 1:3-10, most preferably about 1:4-6. […]

In the case of N[C@@H](CC(=O)N1CCn2c(nnc2C(F)(F)F)C1)Cc1cc(F)c(F)cc1F.O=P(O)(O)O [Form III], the “temperature below which the form is stable” value ([1]; US 2006/0287528) is listed as “below 34 °C”.
In the case of N[C@@H](CC(=O)N1CCn2c(nnc2C(F)(F)F)C1)Cc1cc(F)c(F)cc1F.O=P(O)(O)O [Form II], the “stability of the form (in words)” value [1] is given as “metastable” and the “time to convert to anhydrous Form I or Form III or mixtures thereof” value ([1]; at about 45° C., US 2006/0287528) is given as “about 2 hours”.
In the case of N[C@@H](CC(=O)N1CCn2c(nnc2C(F)(F)F)C1)Cc1cc(F)c(F)cc1F.O=P(O)(O)O [Form IV], the “conversion into crystalline sitagliptin phosphate monohydrate” value ([1]; ambient conditions) is listed as “slowly”, the “stability of the form (in words)” value [1] is listed as “metastable” and the “conversion into crystalline sitagliptin phosphate monohydrate” value ([1]; high relative humidity (98%) at room temperature) is listed as “rapidly”.
In the case of N[C@@H](CC(=O)N1CCn2c(nnc2C(F)(F)F)C1)Cc1cc(F)c(F)cc1F.O=P(O)(O)O [Form I], the “conversion on grinding or compaction” value ([1]; grinding or compaction, US 2006/0287528) is given as “can be converted into Form III”.
With N[C@@H](CC(=O)N1CCn2c(nnc2C(F)(F)F)C1)Cc1cc(F)c(F)cc1F.O=P(O)(O)O [Form V, (2R)-4-oxo-4-[3-(trifluoromethyl)-5,6-dihydro[1,2,4]triazolo[4,3-α]pyrazin-7(8H)yl]-1-(2,4,5-trifluorophenyl)butan-2-amine dihydrogenphosphate] the “time for which polymorph (phase) and chemical stability was demonstrated” value ([2]; elevated temperature and humidity (40° C./75%)) was “over 3 weeks”, the “time stable with respect to polymorphic form (phase) stability and formation of known and unknown degradants” value ([2]; stored under normal conditions of temperature and humidity) was “over 3 months” and the “phase transformation on heating” value [3] was “does not undergo a phase transformation”.
In the case of N[C@@H](CC(=O)N1CCn2c(nnc2C(F)(F)F)C1)Cc1cc(F)c(F)cc1F.O=P(O)(O)O [ethanol solvate], the “stability of the form (in words)” value [1] is listed as “not a stable form”.
For N[C@@H](CC(=O)N1CCn2c(nnc2C(F)(F)F)C1)Cc1cc(F)c(F)cc1F.O=P(O)(O)O [sitagliptin phosphate, dihydrogenphosphate salt of (2R)-4-oxo-4-[3-(trifluoromethyl)-5,6-dihydro[1,2,4]triazolo[4,3-α]pyrazin-7(8H)yl]-1-(2,4,5-trifluorophenyl)butan-2-amine], the “solubility in polar organic solvents” value ([4]; polar organic solvents (e.g. methanol, acetone)) was “not soluble” and the solubility in water ([4]; water) was “soluble”.

— patent US20090247532A1, “Crystalline polymorph of sitagliptin phosphate and its preparation” (Mae De Ltd., priority 2008, published 2009)
